Measured values from patent US20010011063A1, “Substituted 2,4-diamino-1,3,5-triazines, processes for their preparation and their use as herbicides and plant growth regulators” (priority 1999, published 2001).

Columns and labels:
Type in all cases: in vivo
[1] = tested on: Sinapis alba, Echinochloa crus-galli, Lolium multiforum, Stellaria media, Cyperus iria, Amaranthus retroflexus, Settaria viridis and Avena sativa; test: Post-emergence effect on weeds (greenhouse pot test); conditions: application rate of 1 kg or less of active substance per hectare; treated at the three-leaf stage; scored visually after about 3 to 4 weeks vs untreated controls
Procedure: Seeds or rhizome pieces of mono- and dicotyledonous weeds are placed in sandy loam soil in plastic pots, covered with soil and grown in a greenhouse under good growth conditions. Three weeks after sowing, the test plants are treated at the three-leaf stage. The compounds according to the invention, formulated as wettable powders or emulsion concentrates, are sprayed, at various dosages, onto the green parts of the plants at an application rate of 600 to 800 l of water/ha (converted). After the test plants had remained in the greenhouse for about 3 to 4 weeks under optimum growth conditions, the effect of the preparations is scored visually by comparison with untreated controls. The agents according to the invention also have good herbicidal activity post-emergence against a broad spectrum of economically important weed grasses and broad-leaved weeds.

[2] = tested on: Cyperus monti, Echinochloa crus-galli and Sagitaria pygmaea; test: Action on harmful plants in rice (paddy rice conditions); conditions: poured into the dammed water, visual scoring about three weeks after application; note: test concentration or dose not given here
Description: Transplanted and sown rice and also typical rice weeds (gramineous and broad-leaved) are cultivated in closed plastic pots in a greenhouse to the three-leaf stage (Echinochloa crus-galli 1.5-leaf) under paddy rice conditions (height of water: 2-3 cm). This is followed by treatment with the compounds according to the invention. For this purpose, the formulated active compounds are suspended, dissolved or emulsified in water and applied by pouring them into the dammed water around the test plants in different dosages.

[3] = tested on: Stellaria media, Lolium multiflorum, Amaranthus retroflexus, Sinapis alba, Avena sativa and Settaria viridis; test: Pre-emergence effect on weeds (greenhouse pot test); conditions: application rate of 1 kg or less of active substance per hectare; visually scored after 3 to 4 weeks by comparison with untreated controls
Description: Seeds or rhizome pieces of mono and dicotyledonous weed plants are placed in sandy loam soil in plastic pots and covered with soil. The compounds according to the invention which are formulated in the form of wettable powders or emulsion concentrates are then applied to the soil cover in the form of aqueous suspensions or emulsions at an application rate of 600 to 800 l of water/ha (converted), in various dosages.

CC(C)c1nc(N)nc(N[C@H](Cc2ccccc2)CC2CC2)n1 [Example 6-3]
very good herbicidal activity: herbicidal activity post-emergence against harmful plants [1] | herbicidal activity against harmful plants which are typical for rice crops [2] | herbicidal activity pre-emergence against harmful plants [3]

Nc1nc(NC(CCCc2ccc(Cl)cc2Cl)C2CC2)nc(C(F)(F)F)n1 (stereo not drawn) [Example 4-6]
very good herbicidal activity: herbicidal activity post-emergence against harmful plants [1] | herbicidal activity against harmful plants which are typical for rice crops [2] | herbicidal activity pre-emergence against harmful plants [3]

CC(C)(F)c1nc(N)nc(NC(CCc2ccccc2)CC2CC2(F)F)n1 (mixture of isomers) [Example 2-157]
very good herbicidal activity: herbicidal activity post-emergence against harmful plants [1] | herbicidal activity against harmful plants which are typical for rice crops [2] | herbicidal activity pre-emergence against harmful plants [3]

CC(F)c1nc(N)nc(NC(CCCc2ccccc2)C2CC2)n1 (mixture of isomers) [Example 4-3]
very good herbicidal activity: herbicidal activity post-emergence against harmful plants [1] | herbicidal activity against harmful plants which are typical for rice crops [2] | herbicidal activity pre-emergence against harmful plants [3]

CC(C)(F)c1nc(N)nc(NC(CCCc2cccc(Cl)c2)C2CC2)n1 (stereo not drawn) [Example 4-18]
very good herbicidal activity: herbicidal activity post-emergence against harmful plants [1] | herbicidal activity against harmful plants which are typical for rice crops [2] | herbicidal activity pre-emergence against harmful plants [3]

CC(C)c1nc(N)nc(N[C@@H](CCc2ccccc2)C2CCC2)n1 [Example 1-14]
very good herbicidal activity: herbicidal activity post-emergence against harmful plants [1] | herbicidal activity against harmful plants which are typical for rice crops [2] | herbicidal activity pre-emergence against harmful plants [3]

Cc1cccc(CC[C@@H](Nc2nc(N)nc(C(C)(C)F)n2)C2CCC2)c1 [Example 2-28]
very good herbicidal activity: herbicidal activity post-emergence against harmful plants [1] | herbicidal activity against harmful plants which are typical for rice crops [2] | herbicidal activity pre-emergence against harmful plants [3]

Cc1nc(N)nc(N[C@@H](CCCc2ccccc2)C2CC2)n1 [Example 3-8]
very good herbicidal activity: herbicidal activity post-emergence against harmful plants [1] | herbicidal activity against harmful plants which are typical for rice crops [2] | herbicidal activity pre-emergence against harmful plants [3]

CC(C)(F)c1nc(N)nc(NC(CCc2ccccc2)CC2CC2(F)F)n1 (mixture of isomers) [Example 1-157]
very good herbicidal activity: herbicidal activity post-emergence against harmful plants [1] | herbicidal activity against harmful plants which are typical for rice crops [2] | herbicidal activity pre-emergence against harmful plants [3]

CC(C)(F)c1nc(N)nc(N[C@H](CCCCc2ccccc2)C2CCC2)n1 [Example 6-47]
very good herbicidal activity: herbicidal activity post-emergence against harmful plants [1] | herbicidal activity against harmful plants which are typical for rice crops [2] | herbicidal activity pre-emergence against harmful plants [3]

CC(C)c1nc(N)nc(NC(CCCc2ccccc2)C2CCC2)n1 (stereo not drawn) [Example 4-58]
very good herbicidal activity: herbicidal activity post-emergence against harmful plants [1] | herbicidal activity against harmful plants which are typical for rice crops [2] | herbicidal activity pre-emergence against harmful plants [3]

CC(C)c1nc(N)nc(N[C@H](CCCCc2ccccc2)C2CC2)n1 [Example 6-43]
very good herbicidal activity: herbicidal activity post-emergence against harmful plants [1] | herbicidal activity against harmful plants which are typical for rice crops [2] | herbicidal activity pre-emergence against harmful plants [3]

Cc1nc(N)nc(NC(CCCc2ccccc2)C2CC2)n1 (stereo not drawn) [Example 4-8]
very good herbicidal activity: herbicidal activity post-emergence against harmful plants [1] | herbicidal activity against harmful plants which are typical for rice crops [2] | herbicidal activity pre-emergence against harmful plants [3]

Cc1cccc(CC[C@H](Nc2nc(N)nc(C(C)C)n2)C2CCC2)c1 [Example 1-27]
very good herbicidal activity: herbicidal activity post-emergence against harmful plants [1] | herbicidal activity against harmful plants which are typical for rice crops [2] | herbicidal activity pre-emergence against harmful plants [3]

CC(C)c1nc(N)nc(NC(CCCc2cccc(Cl)c2)C2CCC2)n1 (stereo not drawn) [Example 4-67]
very good herbicidal activity: herbicidal activity post-emergence against harmful plants [1] | herbicidal activity against harmful plants which are typical for rice crops [2] | herbicidal activity pre-emergence against harmful plants [3]
